Results from PMC9797307, “Measurement of Pharmacokinetics and Tissue Distribution of Four Compounds from Nauclea officinalis in Rat Plasma and Tissues through HPLC-MS/MS” (Journal of Analytical Methods in Chemistry, 2022).

Key:
[1] = Pharmacokinetic study in rat plasma after oral administration of Nauclea officinalis extracts (HPLC-MS/MS); assay type: in vivo, Male Sprague–Dawley (SD) rats; conditions: oral Nauclea officinalis extracts 2 g/kg, noncompartment model, mean ± SD; for Cmax / MRT last / Vd/F / half-life: male, Sprague-Dawley; for Cmax: n = 6, read-out: C max (maximum plasma concentration); for MRT last: n = 6, read-out: MRT (0 − t); for Vd/F: n = 6, read-out: Vz/F (apparent distribution volume); for half-life: n = 6, read-out: t1/2 (elimination half-life) (converted)
Experimental: (§1) Chromatographic analysis was performed on the LC-20ADXR System (Shimadzu, Japan). The Phenomenex Kinete EVO C18 100 Å (50 mm × 2.1 mm, 5 μm) column was used as the analytical column maintained at 40°C with (A) 0.1% formic acid aqueous solution and (B) acetonitrile as the mobile phase. […] The flow rate was 0.8 mL/min, and the injection volume was 5 μL.
(§2) Mass spectrometric detection was performed on an AB-SCIEX API 4000 mass spectrometer (AB SCIEX, Singapore) with ESI in negative ion multiple reaction monitoring (MRM) mode. The optimized instrument parameters were as follows: nebulizer gas: 50 psi, heated by N2 gas: 55 psi, ion spray voltage: −4500 V and temperature: 550°C; nebulizer, blowback gas, and collision gas were nitrogen; declustering potential (DP), collision energy (CE), and collision cell exit potential (CXP) of the four analytes and chloramphenicol (IS) are shown in Table 1.
Six male SD rats were tested in pharmacokinetics studies. […] The blood samples (approximately 0.5 mL) were collected via the venous plexus of the eye socket at 0.083, 0.25, 0.5, 1, 2, 4, 6, 8, […], 12, and 24 h under anesthesia. Next, each sample was immediately centrifuged at 4000 rpm for 10 min to acquire the plasma. The plasma was transferred to new tubes and stored at −80°C until further use. The pharmacokinetics parameters of the four compounds in rat plasma were calculated by the noncompartment model using Drug and Statistics (DAS 3.3.0) software (Beijing, China).
Pharmacokinetic parameters of four compounds were calculated by noncompartmental model using DAS 3.3.0 software.

[2] = Tissue distribution in rats after oral administration of Nauclea officinalis extracts (HPLC-MS/MS); assay type: in vivo
Experimental: as §1, §2
Thirty rats were divided into five groups (n = 6) at random, which were orally administered Nauclea officinalis extracts at a dose of 2 g/kg for tissue distribution conducted at 0.5, 1, 2, 4, and 6 h. During the collection, the heart, liver, spleen, lung, kidney, stomach, small intestine, and brain were rinsed with physiological saline solution to get rid of the blood or content and blotted on filter paper and then weighed. Each tissue sample was accurately weighed and homogenized by using physiological saline at four times the tissue weight (w/v). The homogenates were stored at −80°C until analysis.
Drugs enter tissues that receive high blood flow first, followed by those that receive low blood flow.

Row | SMILES | Cmax [1] [ng/mL] | MRT last [1] [h] | Vd/F [1] [L/kg] | half-life [1] [h] | AUC (0 − t) ([1]; n = 6) [μg/L∗h] | AUC (0 − ∞) ([1]; n = 6) [μg/L∗h] | CL (clearance rate) ([1]; n = 6) [mL/min/kg] | T max (time to Cmax) ([1]; n = 6) [h] | Abundance in small intestine versus stomach ([2]; after oral extract 2 g/kg) | Detection in studied tissues ([2]; heart, liver, spleen, lung, kidney, small intestine, stomach, brain, 0.5-6 h after oral extract 2 g/kg) | CL (clearance rate) ([1]; n = 6, listed as chlorogenic acid) [mL/min/kg] | Peak concentration in most tissues versus plasma ([2]; after oral extract 2 g/kg)
1 | C/C=C1/COC(=O)[C@H]2C(=O)N3CCc4c([nH]c5ccccc45)[C@@H]3C[C@@H]12 [Naucleactonin C] | 1010 ± 369 | 4.76 ± 1.57 | 0.966 ± 0.359 | 4.59 ± 1.65 | 5281.36 ± 440.02 | 5405.02 ± 416.99 | 2.5 ± 0.17 | 1.66 | more abundant in the small intestine than in the stomach | could be detected in all studied tissue |  | 
2 | O=C(/C=C/c1ccc(O)c(O)c1)O[C@@H]1C[C@](O)(C(=O)O)C[C@@H](O)[C@H]1O [Chlorogenic acid] | 242 ± 84.7 | 5.33 ± 0.65 | 916 ± 452 | 10.6 ± 6.21 |  | 554.37 ± 166.14 | 1049 ± 266.7 |  |  |  | 1049 ± 266.6 | much lower than in plasma
